Activity calls are given as the source filed them. The calls are words filed in the database; no cut-off is given here.
Tests used:
Beta-lactamase [1] = biological target: T1, Beta-lactamase (Enterobacter cloacae, UniProt P05364); experiment: Inhibition of Enterobacter cloacae beta-lactamase incubated for 10 mins followed by nitrocefin substrate challenge and measured for 5 mins by spectrophotometric analysis
Chymotrypsinogen A [2] = biological target: T2, Chymotrypsinogen A (Bos taurus, UniProt P00766); experiment: (§1) Inhibition of alpha-chymotrypsin in bovine pancreas using SPpNA as substrate pretreated with enzyme for 30 mins followed by substrate addition and measured for 12 mins by spectrophotometric analysis
Chymotrypsinogen A [3] = biological target: T2, Chymotrypsinogen A; experiment: Inhibition of alpha-chymotrypsin in bovine pancreas using SPpNA as substrate pretreated with enzyme for 30 mins followed by substrate addition and measured for 12 mins in presence of Triton X-100 by spectrophotometric analysis
[4] = biological target: Chymotrypsinogen A (Bos taurus) (UniProt P00766); experiment: Inhibition of bovine pancreas alpha-chymotrypsin at concentration of 6 uM using SPpNA as substrate treated with enzyme for 30 mins following enzyme incubation with 0.7 to 2.1 M DMSO for 5 mins followed by substrate addition and measured for 12 mins by DMSO-perturbation assay
Bacillus cereus [5] = experiment: Inhibition of Bacillus cereus 569/H9 beta-lactamase incubated for 10 mins followed by nitrocefin substrate challenge and measured for 5 mins by spectrophotometric analysis
[6] = biological target: Chymotrypsinogen A (Bos taurus) (UniProt P00766); experiment: as §1
Bacillus cereus [7] = experiment: Inhibition of Bacillus cereus 569/H9 beta-lactamase treated with enzyme for 10 mins following enzyme incubation with 0.7 to 2.1 M DMSO for 5 mins followed by nitrocefin substrate challenge and measured for 5 mins by DMSO-perturbation assay
Beta-lactamase [8] = biological target: T1, Beta-lactamase; experiment: Inhibition of Enterobacter cloacae beta-lactamase incubated for 10 mins followed by nitrocefin substrate challenge and measured for 5 mins in presence of Triton X-100 by spectrophotometric analysis
[9] = biological target: Chymotrypsinogen A (Bos taurus) (UniProt P00766); experiment: Inhibition of alpha-chymotrypsin in bovine pancreas at 300 uM using SPpNA as substrate pretreated with enzyme for 30 mins followed by substrate addition and measured for 12 mins by spectrophotometric analysis relative to control
[10] = biological target: Beta-lactamase (Enterobacter cloacae) (UniProt P05364); experiment: (§2) Inhibition of Enterobacter cloacae beta-lactamase incubated for 10 mins followed by nitrocefin substrate challenge and measured for 5 mins in presence of 1 mM DTT by spectrophotometric analysis
Chain of Beta-lactamase (Enterobacter cloacae) (P05364 21-381 limits assumed): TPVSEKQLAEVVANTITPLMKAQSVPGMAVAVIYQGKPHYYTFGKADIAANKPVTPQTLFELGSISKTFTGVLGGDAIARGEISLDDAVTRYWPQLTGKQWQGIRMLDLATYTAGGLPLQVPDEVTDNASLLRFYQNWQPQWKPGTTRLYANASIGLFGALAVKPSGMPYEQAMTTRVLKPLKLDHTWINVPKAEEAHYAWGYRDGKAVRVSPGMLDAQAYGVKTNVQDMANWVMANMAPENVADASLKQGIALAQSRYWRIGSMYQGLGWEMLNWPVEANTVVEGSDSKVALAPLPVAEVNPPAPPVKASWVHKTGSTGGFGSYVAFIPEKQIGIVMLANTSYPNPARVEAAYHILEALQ

[11] = biological target: Chymotrypsinogen A (Bos taurus) (UniProt P00766); experiment: Inhibition of bovine pancreas alpha-chymotrypsin at concentration of 6 nM using SAAPPpNA as substrate treated with enzyme for 30 mins following enzyme incubation with 0.7 to 2.1 M DMSO for 5 mins followed by substrate addition and measured for 12 mins by DMSO-perturbation assay
[12] = Drug metabolism in DMSO-d6/potassium phosphate buffer assessed as drug recovery with small amount of metabolite formation by 1H-NMR analysis
Beta-lactamase [13] = biological target: T1, Beta-lactamase; experiment: as §2
[14] = biological target: Beta-lactamase (Enterobacter cloacae) (UniProt P05364); experiment: Inhibition of Enterobacter cloacae beta-lactamase at 200 uM incubated for 10 mins followed by nitrocefin substrate challenge and measured for 5 mins in presence of 1 mM DTT by spectrophotometric analysis relative to control
[15] = biological target: Beta-lactamase (Enterobacter cloacae) (UniProt P05364); experiment: Inhibition of Enterobacter cloacae beta-lactamase at 500 uM incubated for 10 mins followed by nitrocefin substrate challenge and measured for 5 mins by spectrophotometric analysis relative to control

T1 sequence (P05364 whole entry): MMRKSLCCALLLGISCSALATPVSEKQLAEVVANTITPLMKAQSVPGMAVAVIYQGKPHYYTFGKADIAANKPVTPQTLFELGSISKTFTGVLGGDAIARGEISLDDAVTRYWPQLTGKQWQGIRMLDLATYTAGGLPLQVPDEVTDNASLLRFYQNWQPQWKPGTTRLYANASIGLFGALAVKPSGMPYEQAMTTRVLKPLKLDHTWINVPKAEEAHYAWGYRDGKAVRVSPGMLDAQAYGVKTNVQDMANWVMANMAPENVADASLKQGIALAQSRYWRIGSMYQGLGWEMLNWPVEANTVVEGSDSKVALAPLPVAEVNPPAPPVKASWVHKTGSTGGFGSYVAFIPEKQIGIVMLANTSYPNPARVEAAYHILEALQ

With `O=c1cc(-c2ccc(O)c(O)c2)oc2ccccc12` the IC50 (Beta-lactamase [1]) was “Nd(Insoluble)”, the IC50 (Chymotrypsinogen A [2]; read-out: IC50) was 226 µM and the IC50 (Chymotrypsinogen A [3]) was 270 µM.
For `CC(C)C[C@@H](N)C(=O)N[C@@H](Cc1ccccc1)C(=O)NCc1ccc(F)cc1`, the inhibition [4] was “Active”.
In the case of `CC1(C)[C@@H](O[C@H]2O[C@H](C(=O)O)[C@@H](O)[C@H](O)[C@H]2O[C@@H]2O[C@H](C(=O)O)[C@@H](O)[C@H](O)[C@H]2O)CC[C@]2(C)[C@H]3C(=O)C=C4[C@@H]5C[C@@](C)(C(=O)O)CC[C@]5(C)CC[C@@]4(C)[C@]3(C)CC[C@@H]12`, the inhibition (Bacillus cereus [5]) is reported as “inactive”.
For `CCCCCCCCCCCCCCCC(=O)OC[C@H](O)[C@H]1OC(=O)C(O)=C1O`, the inhibition [6] was “inactive” and the inhibition (Bacillus cereus [5]) was “inactive”.
With `COc1ccc2c(c1)c(CC(=O)O)c(C)n2C(=O)c1ccc(Cl)cc1` the inhibition [6] was “inactive” and the inhibition (Bacillus cereus [5]) was “inactive”.
For `O=C(O)[C@H]1/C(=C/CO)O[C@@H]2CC(=O)N21`, the inhibition (Bacillus cereus [7]) was “Active”.
For `O=C(O)[C@H]1O[C@@H](Oc2cc3oc(-c4ccccc4)cc(=O)c3c(O)c2O)[C@H](O)[C@@H](O)[C@@H]1O`, the inhibition (Bacillus cereus [5]) was “inactive”.
With `O=C(O)c1cc(=O)c2c(OCC(O)COc3cccc4oc(C(=O)O)cc(=O)c34)cccc2o1` the inhibition [6] was “inactive” and the inhibition (Bacillus cereus [5]) was “inactive”.
With `O=C(O[C@@H]1Cc2c(O)cc(O)cc2O[C@@H]1c1cc(O)c(O)c(O)c1)c1cc(O)c(O)c(O)c1` the inhibition (Bacillus cereus [5]) was “inactive”.
In the case of `Oc1cc(O)c2c(c1)O[C@H](c1ccc(O)c(O)c1)[C@H](O)C2`, the inhibition (Bacillus cereus [5]) is reported as “inactive”.
Work on `CC1(C)S[C@@H]2[C@H](NC(=O)Cc3ccccc3)C(=O)N2[C@H]1C(=O)O` [PENICILLIN G SODIUM] yielded an IC50 (Beta-lactamase [1]; read-out: IC50) of 7.2 µM and an IC50 (Beta-lactamase [8]) of 3.6 µM.
`O=C(CCc1ccc(O)cc1)c1c(O)cc(O)cc1O` [PHLORETIN] showed an IC50 (Beta-lactamase [1]; read-out: IC50) of 496 µM, an IC50 (Chymotrypsinogen A [2]; read-out: IC50) greater than 300 µM and an inhibition [9] of 9.9%. The inhibition [10] was “Active”.
In the case of `O=c1c(O)c(-c2ccc(O)c(O)c2)oc2cc(O)cc(O)c12` [QUERCETIN], the IC50 (Beta-lactamase [1]; read-out: IC50) is reported as 85 µM, the IC50 (Beta-lactamase [8]) is reported as greater than 500 µM and the inhibition [4] is reported as “Active”. For the same molecule, the inhibition [11] was “Active”, the Drug metabolism [12] was “Metabolite detected” and the IC50 (Beta-lactamase [13]) was 224 µM.
For `CC(=O)c1c(O)c(C)c(O)c(Cc2c(O)c3c(c(C(=O)/C=C/c4ccccc4)c2O)OC(C)(C)C=C3)c1O` [ROTTLERIN], the IC50 (Beta-lactamase [1]; read-out: IC50) was 96 µM, the IC50 (Beta-lactamase [8]) was 142 µM and the IC50 (Chymotrypsinogen A [2]) was “Nd(Insoluble)”. The Drug metabolism [12] was “Metabolite detected” and the inhibition [14] was less than 50%.
Work on `C[C@@H]1O[C@@H](OC[C@H]2O[C@@H](Oc3c(-c4ccc(O)c(O)c4)oc4cc(O)cc(O)c4c3=O)[C@H](O)[C@@H](O)[C@@H]2O)[C@H](O)[C@H](O)[C@H]1O` [RUTIN] yielded an IC50 (Beta-lactamase [1]; read-out: IC50) greater than 500 µM, an inhibition [15] of 15% and an IC50 (Chymotrypsinogen A [2]; read-out: IC50) of 296 µM. The IC50 (Chymotrypsinogen A [3]) was 281 µM and the inhibition [4] was “Active”.

Source: ChEMBL document CHEMBL4304766, “DMSO-Perturbing Assay for Identifying Promiscuous Enzyme Inhibitors” (ACS Med Chem Lett, 2019)
